This is an account of results in patent US9642835B2, “Modulators of GTPase and use in relevant treatment” (STC.UNM, priority 2010, dated 2017).

One experiment deals with Cdc42 in Swiss 3T3 cells. The experiment can be described thus: EGF induced Cdc42 membrane localization. The settings on record: 1 μM. In kind it is cell-based. As for the experimental part:
Subconfluent cells were starved overnight in DMEM without serum and incubated with 1 or 10 μM inhibitor for 1 h. As a positive control, cells were stimulated with 100 ng/ml bradykinin for 30 min, or 100 ng/ml EGF as previously described {Kozma, 1995 #24}. Cells were washed with phosphate buffered saline, fixed with 3% paraformaldehyde, permeabilized for 5 min with 0.1% Triton X-100 in Tyrode's buffer, blocked for 1 h with 1% BSA in Tyrode's buffer, and stained for 1 h with rhodamine-phalloidin or Cdc42 mAb (Cytoskeleton Inc., Denver, Colo.) for 1 h followed by Cy3-conjugated goat-anti-mouse antibody (Jackson Immunoresearch Laboratories) for 1 h, at RT.

The subject of the next experiment is RBL-2H3 cells. The experiment in a line: RBL cell morphology, actin and Cdc42 distribution after activation. It is filed as cell-based, rat. The conditions noted are these: 10 μM. As for the experimental part: Live cell microscopy was carried out on RBL-2H3 cells. Cells were grown on coverslips overnight, washed and overlaid with Tyrode's buffer (10 mM Hepes, pH 7.4, 130 mM NaCl, 5 mM KCl, 1.4 mM CaCl2, 1 mM MgCl2, 5.6 mM glucose and 0.1% BSA). Time lapse images were taken after addition of 10 μM MLS000693334 (final concentration) at 60 s intervals for up to 30 min. Activation with Thy-1 cross-linking was performed as described {Surviladze, 1998 #50}. Briefly, RBL cells incubated with OX7 mAb (Santa Cruz Biothechnology) final concentration 50 ug/ml for 1 h at 37 C. The unbound OX7 mAb was washed out with Tyrode's solution and activation initiated by adding anti-mouse IgG (25 ug/ml) (Jackson Immunoresearch Laboratories). Imaging was performed using a Bio-Rad Radiance 2100 confocal microscope equipped with a 60×1.4 NA oil immersion objective equipped with Lasersharp3000 software.
RBL-2H3 cells were grown in RPMI supplemented with 10% fetal bovine serum on cover slips. Semi-confluent cells were washed with Tyrode's solution and incubated with DMSO (vehicle) or 10 μM MLS000693334 for 1 h at 37° C. Inhibitor treated and un-treated cells were stimulated with 1 μg/ml DNP-BSA for 30 min as previously described {Wilson, 1991 #52}. Activation stopped by transferring of samples on ice. […]

The next experiment addresses T1, Cdc42 WT (Homo sapiens, UniProt P60953).
T1 construct: purchased Cytoskeleton
The experiment can be described thus: Bead-based flow cytometry dose response, BODIPY-FL-GTP binding. The conditions noted are these: in the presence of Mg ions; read-out: EC50 for Cdc42 wt. The protocol:
(§1) Bead sets for multiplex assays were custom synthesized by Duke Scientific Corp (Fremont, Calif.), but may now be ordered from Thermo/Fisher. […] Negative controls, contained the bead mixture with fluorescent GTP, 0.5 mM unlabeled GTP as a competitor, and 1% DMSO. […] The resulting time-dependent data (one file per plate) were analyzed using IDLQuery software to determine the compound activity in each well. Gating based on forward scatter (FS) and side scatter (SS) parameters was used to identify singlet bead populations. Gating based on FL8 emission distinguishes the beads coated with different proteins, and the median fluorescence per bead population was calculated. […] Baselines were set to 100% based on measurements from the 1% DMSO containing positive controls as further described in PubChem. {PubChem #72}
(§2) Briefly, compounds were serially diluted 1:3 a total of eight times from a starting concentration of 10 mM giving a 9-point dilution series in DMSO. The final concentrations of inhibitors in the assay ranged from 10 nM to 100 μM. Dose-response analyses were examined in the presence of NP-HPS buffer containing: a) 1 mM EDTA; or b) 1 mM MgCl2. […] For assays with EDTA we used one multiplex (Rab7 wt, Rab2 wt, H-Ras wt, H-RasG12V, Cdc42 wt, and Cdc42Q61L) and 3 single-plexes (for Rac1 wt, Rac1 Q61L and GST-GFP).
(§3) GTPase activators were identified on the basis of an increase in fluorescent GTP-binding.
(§4) In experiments including magnesium, six GST-GTPases were assayed simultaneously in a single multiplex (Rac1 wt, Rac1Q61L, RhoA wt, RhoAL63, Cdc42 wt and Cdc42Q61L) and 1 nM BODIPY-FL-GTP binding was measured in the presence or absence of the serial drug dilution series. Each dose response series was run in duplicate.
On the technique in general: Flow cytometry measures light scatter and fluorescence of single cells or particles in a stream.

Another experiment deals with Cdc42 ACT (Cdc42Q61L) (Homo sapiens, UniProt P60953, Q61L). The description is as above. The conditions noted are these: in the presence of Mg ions; read-out: EC50 for Cdc42(Q61L). The protocol: as §1, §2, §3, §4
Sequence of Cdc42 ACT (Cdc42Q61L) (P60953 whole entry Q61L): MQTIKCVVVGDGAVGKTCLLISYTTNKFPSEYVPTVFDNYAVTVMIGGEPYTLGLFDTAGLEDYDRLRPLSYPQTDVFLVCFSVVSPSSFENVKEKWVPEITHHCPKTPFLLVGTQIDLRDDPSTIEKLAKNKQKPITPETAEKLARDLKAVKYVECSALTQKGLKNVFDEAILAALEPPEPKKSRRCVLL
The test system of experiment [1] is Dbs (guanine nucleotide exchange factor) on Cdc42 wt. The experiment can be described thus: Effect on Dbs activity, [3H]GDP/GTP exchange. The conditions noted are these: 10 μM. In kind it is biochemical. As for the experimental part: GSH-beads were coupled with Cdc42 wt, washed and incubated with 10 mM EDTA-NP-HPS for 20 min at 30° C. Nucleotide depleted enzyme washed with NP-HPS, and incubated with 2μCi [^3H]GDP in the presence of 1 mM EDTA (in NP-HPS buffer) for 20 min at 30° C. To prevent the dissociation of tritiated guanine nucleotide from the Cdc42, MgCl2 was added to a final concentration 20 mM. [^3H]GDP-Cdc42-beads washed and re-suspended in GDP exchange buffer (NP-HPS with 1 mM EDTA, 5 mM MgCl2, and 1 mM DTT) and 100 μl aliquots loaded in tubes and incubated with vehicle or 10 μM MLS000693334 for 15 min. Effect of the guanine nucleotide exchange factor domain, Dbs on GDP/GTP exchange in the presence and absence of inhibitor was measured after addition of 200 nM His-DBS (DH/PH domain). The GDP/GTP exchange reaction was initiated by addition of 250 nM GTP and incubation samples for 2 min 30 C. The reaction was stopped by transferring samples on ice. Cdc42-beads collected and washed twice with ice cold GDP exchange buffer and measured radioactivity, by loading samples in scintillation vial.

T1 sequence (P60953 whole entry): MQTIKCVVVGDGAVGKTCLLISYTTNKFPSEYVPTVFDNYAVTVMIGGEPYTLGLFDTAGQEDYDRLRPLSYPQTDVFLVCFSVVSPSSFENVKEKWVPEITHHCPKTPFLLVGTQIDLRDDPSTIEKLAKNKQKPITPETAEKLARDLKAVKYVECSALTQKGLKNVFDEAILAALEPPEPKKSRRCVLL

A word on the EC50: it is the concentration needed to bring the measured effect to its halfway point. For `COc1ccc(C2CC(c3ccccc3)=NN2c2ccc(S(N)(=O)=O)cc2)cc1` (stereo not drawn) [MLS000693334, 4-[3-(4-methoxyphenyl)-5-phenyl-3,4-dihydropyrazol-2-yl]benzenesulfonamide], in the experiment with Cdc42 in Swiss 3T3 cells, the “EGF induced localization of Cdc42 on the membrane” value is on record as “reduced membrane localization”. Also, in the experiment on RBL-2H3 cells, the “Filopodia formation and cell spreading after cross-linking of Thy-1” value is reported as “dramatically inhibits”; the “Morphology of resting RBL-2H3 cells” value is on record as “no change in morphology”. At Cdc42 WT, the EC50 was around 4 µM. Besides, the EC50 at Cdc42 ACT (Cdc42Q61L) is around 4 µM. In experiment [1], the “Dbs activity (GDP/GTP exchange)” value is given as “did not changes Dbs activity”.
